According to article PMC5688848 (Bioorganic & medicinal chemistry, 2016):
Ends that are not written are not given here.

How the values were obtained:
[1] = system: HeLa cells; test: Cell toxicity assay; type: cell-based; details: 75 μM, 3 days
[2] = system: HeLa cells; test: Cisplatin sensitization by the clonogenic survival assay; type: cell-based; details: cisplatin 24 h then compound 75 μM 24 h, 6 more days
[3] = system: ICLR in COS7 cells; test: ICL repair assay; type: cell-based; details: 75 μM
[4] = molecular target: His-REV7(R124A)/REV3L(1847–1898) complex (Homo sapiens, UniProt Q9UI95, R124A); test: Thermal shift assay; type: binding; details: compound 500 μM, protein 5 μM, 4 h at room temperature
[5] = molecular target: His-REV7(R124A)/biotin-AviTag-REV3L(1846–1898) complex (Homo sapiens, UniProt Q9UI95, R124A); test: Pull-down assay on streptavidin-conjugated agarose beads; type: binding; details: compound 50 μM, complex 1 μM, 4°C 20 h
[6] = molecular target: T1, hexahistidine (His)-REV7(R124A) (UniProt Q9UI95 1-211, R124A); test: AlphaScreen or HTRF
[7] = molecular target: T1, hexahistidine (His)-REV7(R124A); test: AlphaScreen or HTRF; remark: listed apart in the source

T1 sequence (Q9UI95 whole entry R124A): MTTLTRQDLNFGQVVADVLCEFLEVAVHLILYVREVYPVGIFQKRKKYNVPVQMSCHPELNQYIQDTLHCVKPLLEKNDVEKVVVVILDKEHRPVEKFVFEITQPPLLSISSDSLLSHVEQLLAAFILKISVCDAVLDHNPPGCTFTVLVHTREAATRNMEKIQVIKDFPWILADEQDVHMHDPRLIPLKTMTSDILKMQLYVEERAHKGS
Chain of His-REV7(R124A)/biotin-AviTag-REV3L(1846–1898) complex (Q9UI95 whole entry R124A, one chain of several): as the sequence (Q9UI95 whole entry R124A) above
Chain of His-REV7(R124A)/REV3L(1847–1898) complex (Q9UI95 whole entry R124A, one chain of several): as the sequence (Q9UI95 whole entry R124A) above

## CC(=O)N1CCC(Cn2cnc3scc(-c4ccc(C)o4)c3c2=O)CC1 [compound 7]
[1]
  Viability / growth of HeLa cells (alamarBlue), normalized by DMSO: decreased HeLa cell growth but did not completely eliminate the cells
[2]
  Normalized number of colonies (clonogenic survival) versus cisplatin only: lesser
[3]
  ICLR activity (luciferase activity of ICL plasmid normalized to non-ICL plasmid): suppressed luciferase activity

## CC(=O)N1CCC(Cn2cnc3scc(-c4ccco4)c3c2=O)CC1 [compound 1]
[4]
  Shift in the denaturation point of the His-REV7(R124A)/REV3L(1847–1898) complex: clear shift in the denaturation point
[5]
  Isolation of His-REV7(R124A) on streptavidin beads (complex dissociation): significantly inhibited

## ANILKPLMSPPSREEIMATLL-biotin [C-terminal biotin-tagged REV3L(1875–1895) peptide]
[6]
  binding result: binds

## ANILKPLMSPPSREEIMATLL [non-tagged REV3L(1875–1895) peptide]
[7]
  IC50: 80 nM
